Source: US8883782B2, “Spiro-tetracyclic ring compounds as beta-secretase modulators and methods of use” (Amgen Inc., priority 2010, dated 2014)
Like-named read-outs stand apart in the source and are kept apart here.

Key:
[1] = biological target: Beta Secretase enzyme (BACE) (Homo sapiens, UniProt P56817); test: In vitro enzymatic BACE FRET (fluorescence resonance energy transfer) assay; assay type: biochemical; conditions: average IC50, enzyme assay; read-out: BACE 1 FRET assay
Outline: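 Run in 0.05 M acetate pH 4.2 with 10% DMSO final and 100 uM genapol; started by adding 50 nM FRET peptide substrate (fluorophore and quencher flanking the cleavage site), incubated one hour, then stopped with Tris to neutral pH before reading fluorescence.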

[2] = system: Aβ40 in conditioned medium of cells stably expressing Amyloid Precursor Protein (APP); test: In vitro BACE cell-based assay (Aβ40 in conditioned medium, sandwich ELISA); conditions: read-out: HEK cell assay
Outline: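 Secreted Aβ40 is captured with pAb40 and detected with biotinylated 6E10, read by europium time-resolved fluorescence. IC50 comes from percent inhibition versus concentration.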

[3] = Homo sapiens, HEK293, average IC50
[4] = Homo sapiens, HEK293, average IC50, HEK cells

Beta Secretase enzyme (BACE), sequence (P56817 46-501, species assumed): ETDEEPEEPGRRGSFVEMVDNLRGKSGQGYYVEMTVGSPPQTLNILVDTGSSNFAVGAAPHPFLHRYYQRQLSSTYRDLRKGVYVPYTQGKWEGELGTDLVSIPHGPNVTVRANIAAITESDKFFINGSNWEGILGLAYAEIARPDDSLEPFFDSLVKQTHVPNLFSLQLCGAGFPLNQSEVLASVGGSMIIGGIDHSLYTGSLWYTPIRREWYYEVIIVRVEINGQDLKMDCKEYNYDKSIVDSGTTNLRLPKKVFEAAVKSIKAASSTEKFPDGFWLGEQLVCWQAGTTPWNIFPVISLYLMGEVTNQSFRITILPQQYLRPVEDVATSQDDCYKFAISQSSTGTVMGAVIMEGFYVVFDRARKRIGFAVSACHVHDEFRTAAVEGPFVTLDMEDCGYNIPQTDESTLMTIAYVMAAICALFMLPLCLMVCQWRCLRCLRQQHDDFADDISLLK

SMILES | IC50 [1] | IC50 [2, 3] | IC50 [2, 4] | IC50 [2]
COc1nc(-c2ccncc2)cc2c1Oc1ccc(-c3cccnc3)cc1[C@@]21COC(N)=N1 [Example 838, (5S)-1-methoxy-7-(3-pyridinyl)-3-(4-pyridinyl)spiro[chromeno[2,3-c]pyridine-5,4′-[1,3]oxazol]-2′-amine] | 7.3 nM | 20 nM | – | –
COc1nc(C2=CCOCC2)cc2c1Oc1ccc(-c3cccnc3)cc1[C@@]21COC(N)=N1 [Example 840, (5S)-3-(3,6-dihydro-2H-pyran-4-yl)-1-methoxy-7-(3-pyridinyl)spiro[chromeno[2,3-c]pyridine-5,4′-[1,3]oxazol]-2′-amine] | 4.3 nM | 15 nM | – | –
COc1nc(C2=CCCOC2)cc2c1Oc1ccc(-c3cccnc3)cc1[C@@]21COC(N)=N1 [Example 841, (5S)-3-(5,6-dihydro-2H-pyran-3-yl)-1-methoxy-7-(3-pyridinyl)spiro[chromeno[2,3-c]pyridine-5,4′-[1,3]oxazol]-2′-amine] | 1.2 nM | 6 nM | – | –
NC1=N[C@@]2(CO1)c1cc(-c3cccnc3F)ccc1Oc1cnc(-c3ccnc(O)c3)cc12 [Example 842, 4-((5S)-2′-amino-7-(2-fluoro-3-pyridinyl)spiro[chromeno[2,3-c]pyridine-5,4′-[1,3]oxazol]-3-yl)-2-pyridinol] | 25.9 nM | 2560 nM | – | –
COCC#Cc1cncc(-c2ccc3c(c2)C2(COC(N)=N2)c2cc(OC)cc(F)c2O3)c1 (stereo not drawn) [Example 843, 4′-fluoro-2′-methoxy-7′-(5-(3-methoxy-1-propyn-1-yl)-3-pyridinyl)spiro[1,3-oxazole-4,9′-xanthen]-2-amine] | 8.8 nM | 57 nM | – | –
COc1nc(C2CCCOC2)cc2c1Oc1ccc(-c3cccnc3F)cc1[C@@]21COC(N)=N1 (stereo partly drawn) [Example 844, (5S)-7-(2-fluoro-3-pyridinyl)-1-methoxy-3-(tetrahydro-2H-pyran-3-yl)spiro[chromeno[2,3-c]pyridine-5,4′-[1,3]oxazol]-2′-amine] | 6.7 nM | 66 nM | – | –
COc1nc(C2CCCOC2)cc2c1Oc1ccc(-c3cccnc3)cc1[C@@]21COC(N)=N1 (stereo partly drawn) [Example 845, (5S)-1-methoxy-7-(3-pyridinyl)-3-(tetrahydro-2H-pyran-3-yl)spiro[chromeno[2,3-c]pyridine-5,4′-[1,3]oxazol]-2′-amine] | 15.5 nM | 70 nM | – | –
COc1nc(F)cc2c1Oc1ccc(-c3cccnc3)cc1[C@]21COC(N)=N1 [Example 847, (5R)-3-fluoro-1-methoxy-7-(3-pyridinyl)spiro[chromeno[2,3-c]pyridine-5,4′-[1,3]oxazol]-2′-amine, (5S)-3-fluoro-1-methoxy-7-(3-pyridinyl)spiro[chromeno[2,3-c]pyridine-5,4′-[1,3]oxazol]-2′-amine] | 0.4 nM | – | – | 10 nM
COc1nc(N2CCC(F)(F)CC2)cc2c1Oc1ccc(-c3cccnc3F)cc1[C@@]21COC(N)=N1 [Example 849, (5S)-3-(4,4-difluoro-1-piperidinyl)-7-(2-fluoro-3-pyridinyl)-1-methoxyspiro[chromeno[2,3-c]pyridine-5,4′-[1,3]oxazol]-2′-amine] | 4.2 nM | – | 78 nM | –
CCc1cc2c(c(F)n1)Oc1ccc(-c3cncc(F)c3)cc1[C@@]21COC(N)=N1 [Example 850, (5S)-3-ethyl-1-fluoro-7-(5-fluoro-3-pyridinyl)spiro[chromeno[2,3-c]pyridine-5,4′-[1,3]oxazol]-2′-amine] | 4.5 nM | – | 52 nM | –
COc1ncccc1-c1ccc2c(c1)[C@@]1(COC(N)=N1)c1cc(N3CCC(F)(F)CC3)nc(OC)c1O2 [Example 852, (5S)-3-(4,4-difluoro-1-piperidinyl)-1-methoxy-7-(2-methoxy-3-pyridinyl)spiro[chromeno[2,3-c]pyridine-5,4′-[1,3]oxazol]-2′-amine] | 92.6 nM | – | 609 nM | –
C=CCN(C)c1cc(F)c2c(c1)[C@]1(COC(N)=N1)c1cc(-c3cccnc3F)ccc1O2 [Example 853, (4S)-4′-fluoro-7′-(2-fluoro-3-pyridinyl)-N~2~′-methyl-N~2~′-2-propen-1-ylspiro[1,3-oxazole-4,9′-xanthene]-2,2′-diamine] | 4 nM | – | 85 nM | –
CN(c1cc(F)c2c(c1)[C@]1(COC(N)=N1)c1cc(-c3cccnc3F)ccc1O2)C1COC1 [Example 854, (4S)-4′-fluoro-7′-(2-fluoro-3-pyridinyl)-N~2~′-methyl-N~2~′-3-oxetanylspiro[1,3-oxazole-4,9′-xanthene]-2,2′-diamine] | 4.4 nM | – | 17 nM | –

More lines, in order of falling IC50 [1], values ahead:

IC50 [1] | IC50 [2, 3] | IC50 [2, 4] | SMILES | IC50 [2]
0.8 nM | – | 8 nM | Cc1cc(-c2cc3c(c(F)n2)Oc2ccc(-c4cccnc4F)cc2[C@@]32COC(N)=N2)on1 [Example 851, (5S)-1-fluoro-7-(2-fluoro-3-pyridinyl)-3-(3-methyl-5-isoxazolyl)spiro[chromeno[2,3-c]pyridine-5,4′-[1,3]oxazol]-2′-amine] | –
0.7 nM | 9 nM | – | CC#Cc1cncc(-c2ccc3c(c2)[C@@]2(COC(N)=N2)c2cc(-c4ccncc4)nc(OC)c2O3)c1 [Example 837, (5S)-1-methoxy-7-(5-(1-propyn-1-yl)-3-pyridinyl)-3-(4-pyridinyl)spiro[chromeno[2,3-c]pyridine-5,4′-[1,3]oxazol]-2′-amine] | –
0.7 nM | – | 2 nM | NC1=N[C@@]2(CO1)c1cc(-c3cccnc3F)ccc1Oc1c(F)cc(N3CC4(CCCO4)C3)cc12 [Example 855, (4S)-4′-fluoro-7′-(2-fluoro-3-pyridinyl)-2′-(5-oxa-2-azaspiro[3.4]oct-2-yl)spiro[1,3-oxazole-4,9′-xanthen]-2-amine] | –
0.6 nM | 7 nM | – | CC#Cc1cncc(-c2ccc3c(c2)[C@@]2(COC(N)=N2)c2cc(C4=CCOCC4)nc(OC)c2O3)c1 [Example 835, (5S)-3-(3,6-dihydro-2H-pyran-4-yl)-1-methoxy-7-(5-(1-propyn-1-yl)-3-pyridinyl)spiro[chromeno[2,3-c]pyridine-5,4′-[1,3]oxazol]-2′-amine] | –
0.6 nM | – | 4 nM | NC1=N[C@@]2(CO1)c1cc(-c3cccnc3F)ccc1Oc1c(F)cc(N3CC4(CCCOC4)C3)cc12 [Example 856, (4S)-4′-fluoro-7′-(2-fluoro-3-pyridinyl)-2′-(6-oxa-2-azaspiro[3.5]non-2-yl)spiro[1,3-oxazole-4,9′-xanthen]-2-amine] | –
0.5 nM | 4 nM | – | CC#Cc1cncc(-c2ccc3c(c2)[C@@]2(COC(N)=N2)c2cc(C4=CCCOC4)nc(OC)c2O3)c1 [Example 836, (5S)-3-(5,6-dihydro-2H-pyran-3-yl)-1-methoxy-7-(5-(1-propyn-1-yl)-3-pyridinyl)spiro[chromeno[2,3-c]pyridine-5,4′-[1,3]oxazol]-2′-amine] | –
0.5 nM | – | 18 nM | NC1=N[C@@]2(CO1)c1cc(-c3c(F)ccnc3F)ccc1Oc1c(F)cc(-c3ncccn3)cc12 [Example 858, (4S)-7′-(2,4-difluoro-3-pyridinyl)-4′-fluoro-2′-(2-pyrimidinyl)spiro[1,3-oxazole-4,9′-xanthen]-2-amine] | –
0.4 nM | 2 nM | – | C=Cc1cc2c(c(F)n1)Oc1ccc(-c3cncc(F)c3)cc1C21COC(N)=N1 (stereo not drawn) [Example 848, 3-ethenyl-1-fluoro-7-(5-fluoro-3-pyridinyl)spiro[chromeno[2,3-c]pyridine-5,4′-[1,3]oxazol]-2′-amine] | –
